Reference: publication PMC5443783, “Prostaglandin E2 glyceryl ester is an endogenous agonist of the nucleotide receptor P2Y6” (Scientific Reports, 2017)
Entries after “also recorded” stand apart in the source; their conditions may differ.

What was measured:
[1] = biological target: T1, P2Y1 (Homo sapiens, UniProt P47900); experiment: Intracellular Ca2+ release in HEK293 cells transfected with P2RY1; type: cell-based; conditions: HEK293 transfected with P2RY1, Fig. 3f
T1 construct: expressed in transfected cells; host or cells: HEK293
Method: (§1) For fluorometric measurements of intracellular Ca^2+ levels with the FlexStationII instrument (Molecular Devices), RAW264.7 and H1819 cells were seeded into 96-well plates (3.0 × 10^4 cells/well) 24 h prior to assay. Ca^2+ measurements with transiently transfected HEK293 cells were performed 48 h after transfection. Cells were loaded with 200 µl Calcium 5 reagent (Explorer Kit, Molecular Devices, USA) for 60 min at 37 °C, and the assay was performed as described. Agonists and inhibitors were solved in DMSO (100x) and diluted […] in 96-well compound plates containing HBSS. 50 µl of compound solution were added to the assay plate resulting in final concentration of 1% DMSO. Fold-response was calculated by RFUmax − RFUmin (ligand)/RFUmax − RFUmin (vehicle). EC50 values were calculated by using GraphPad Prism6 software (GraphPad, USA).

[2] = biological target: T2, P2Y12 (Homo sapiens, UniProt Q9H244); experiment: Intracellular Ca2+ release in HEK293 cells transfected with P2RY12; type: cell-based; conditions: HEK293 transfected with P2RY12, Fig. 3f
T2 construct: expressed in transfected cells; host or cells: HEK293
Method: as §1

[3] = biological target: T3, P2Y6 Y75A (Homo sapiens, UniProt Q15077, Y75A); experiment: IP1 accumulation assay, mutant P2Y6 Y75A; type: cell-based; conditions: for IP1 formation at mutant receptor: Fig. 6d
T3 construct: expressed in transfected cells; host or cells: HEK293
Excerpt: (§2) cDNA from H1819 cells was used to amplify and clone the P2RY6 and CNR2 coding sequences. They were double-tagged with an N-terminal HA epitope and a C-terminal FLAG epitope and, for transient transfection, introduced into the mammalian expression vector pcDps[56]. All mutant constructs were generated by a PCR-based site-directed mutagenesis and fragment replacement strategy. For stable transfection, P2RY6 was sub-cloned into the pIRES-eGFP vector (CLONTECH Laboratories, USA). All constructs were verified by sequencing.
(§3) To measure intracellular IP3 the HitHunter® Inositol (1,4,5) Triphosphate Assay (DiscoveRx, USA) was used according to manufacturer′s protocol. HEK293 cells stably transfected with hP2RY6 were seeded in a 384-well Black microtiter plate (15,000 cells/well) (Greiner Bio One, Germany) and incubated with indicated concentrations of UDP and PGE2-G for 20 seconds. Reaction was stopped by adding 5 µl 0.2 N perchloric acid and measurement of IP3 was performed with the Fusion AlphaScreen multilabel reader (PerkinElmer Life Sciences) according to manufacturer′s protocol. To measure IP1, HEK293 cells expressing wildtype and mutant P2Y6 were seeded into 384-well plates (5,000 cells/well) 24 h prior assay. After aspiration of the medium, cells were incubated with indicated concentrations of agonists/antagonist for 1 h. IP1 measurements using the IP-one HTFR® assay kit (Cisbio assays, USA) were performed according to manufacturer′s protocol. The assays were performed with a final concentration of 1% DMSO.

[4] = biological target: T4, P2Y6 F252A (Homo sapiens, UniProt Q15077, F252A); experiment: IP1 accumulation assay, mutant P2Y6 F252A; type: cell-based; conditions: for IP1 formation at mutant receptor: Fig. 6d
T4 construct: expressed in transfected cells; host or cells: HEK293
Excerpt: as §2, §3

[5] = biological target: T5, P2Y6 Y262 to alanine (Homo sapiens, UniProt Q15077, Y262A); experiment: IP1 accumulation assay, mutant P2Y6 Y262A; type: cell-based; conditions: Fig. 6d
T5 construct: expressed in transfected cells; host or cells: HEK293
Excerpt: as §2
as §3, with “IP1 measurements using the IP-one HTFR® assay kit (Cisbio assays, USA) were performed according to manufacturer′s protocol. The assays were performed with a final concentration of 1% DMSO.” left out

[6] = tested on: 78 orphan GPCRs; experiment: PathHunter β-Arrestin Orphan GPCR cell line panel, whole panel; type: cell-based; conditions: β-arrestin recruitment
Excerpt: For screening orphan GPCRs as possible targets for PGE2-G, the PathHunter® β-Arrestin assay (DiscoveRx Co., USA) was used. It monitors the activation of a GPCR by utilizing an enzyme fragment complementation assay with β-galactosidase as the functional reporter. Briefly, the enzyme is split into two complementary portions expressed as fusion proteins in the cell. The enzyme acceptor is fused to β2-arrestin, and the ProLink donor peptide is fused to the GPCR of interest. Upon GPCR stimulation, β2-arrestin is recruited to the receptor, bringing the two fragments of β-galactosidase together. This generates an active enzyme that can convert a chemiluminescent substrate, generating a signal detectable on a standard microplate reader (see manufacturer’s instructions). In total, 78 GPCRs, previously considered orphan and individually transfected into cells, were screened by DiscoveRx (Supplementary Table S1). The percentage activity given in the results is calculated using the following formula: % activity = 100% × (mean RLU of test sample - mean RLU of vehicle control)/mean RLU of vehicle control).

[7] = tested on: RAW264.7 cells; conditions: RAW264.7 and H1819 cell lines; read-out: EC50, Ca2+ response; cited from earlier work
[8] = tested on: prostanoid receptors EP1–4, DP, FP, TP, or IP; set-up: method as in PMID 18297109, PMID 14766978, PMID 14757851; conditions: cited from earlier work
[9] = biological target: T6, P2Y6 (Homo sapiens, UniProt Q15077); experiment: Agonist-induced receptor internalization, cell surface ELISA; type: cell-based; set-up: expressed in transfected cells; host or cells: HEK293; conditions: HEK293 transiently transfected with hP2RY6, time-dependent, Fig. 5e
Method: To estimate cell surface expression of heterologously expressed receptors carrying an N-terminal HA tag, an indirect cellular ELISA was used[57]. To determine the endogenous cell surface expression of P2Y6, the same ELISA procedure was performed with minor modifications. Briefly, after 4% paraformaldehyde fixation and blocking with 10% FBS, cells were incubated with the primary anti-P2Y6 antibody (sc-15215; Santa Cruz Biotechnology, USA) in 1:1,000 dilution for 1 h. After washing with PBS, cells were incubated with peroxidase-conjugated secondary antibody anti-goat IgG (sc-2020, Santa Cruz Biotechnology, USA) in 1:5,000 dilutions.

[10] = biological target: T6, P2Y6; experiment: IP3 assay in P2RY6-transfected HEK293 cells; type: cell-based; set-up: expressed in transfected cells; host or cells: HEK293; conditions: Fig. 3a, read-out: EC50, IP3 levels
Method: as §3

[11] = biological target: T6, P2Y6; experiment: cAMP-inhibition assay in P2RY6-transfected HEK293 cells; type: cell-based; set-up: expressed in transfected cells; host or cells: HEK293; conditions: P2RY6-transfected HEK293, 2.5 µM forskolin, Fig. 3c; read-out: EC50, suppression of cAMP formation
Method: After transfection (72 h), cells were washed once with DMEM/F12 containing 1 mM 3-isobutyl-methyl-xanthine (IBMX) followed by incubation in the presence of the indicated compounds and forskolin (2.5 µM) for 15 min at 37 °C. The final concentration of DMSO was 1%. Cells were lysed in 25 μl lysis buffer (5 mM HEPES; 0.1% BSA; 0.3% Tween20; 1 mM IBMX; pH 7.4) and kept frozen at −20 °C until measurement. To measure cAMP concentration, the AlphaScreen cAMP assay kit (PerkinElmer Life Sciences) was used according to the manufacturer’s protocol.

T4 sequence (Q15077 whole entry F252A): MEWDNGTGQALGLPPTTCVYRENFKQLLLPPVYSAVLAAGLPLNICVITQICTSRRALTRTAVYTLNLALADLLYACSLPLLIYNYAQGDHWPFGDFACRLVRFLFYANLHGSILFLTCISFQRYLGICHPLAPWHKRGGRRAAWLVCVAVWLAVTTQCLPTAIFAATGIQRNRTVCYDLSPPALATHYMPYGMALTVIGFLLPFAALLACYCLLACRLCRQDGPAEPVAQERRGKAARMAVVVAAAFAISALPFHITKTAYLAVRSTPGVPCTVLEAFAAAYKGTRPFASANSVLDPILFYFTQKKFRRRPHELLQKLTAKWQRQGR
T6 sequence (Q15077 whole entry): as the sequence (Q15077 whole entry F252A) above, with A252F counted along it
T3 sequence (Q15077 whole entry Y75A): as the sequence (Q15077 whole entry F252A) above, with Y75A, A252F counted along it
T2 sequence (Q9H244 whole entry, species assumed): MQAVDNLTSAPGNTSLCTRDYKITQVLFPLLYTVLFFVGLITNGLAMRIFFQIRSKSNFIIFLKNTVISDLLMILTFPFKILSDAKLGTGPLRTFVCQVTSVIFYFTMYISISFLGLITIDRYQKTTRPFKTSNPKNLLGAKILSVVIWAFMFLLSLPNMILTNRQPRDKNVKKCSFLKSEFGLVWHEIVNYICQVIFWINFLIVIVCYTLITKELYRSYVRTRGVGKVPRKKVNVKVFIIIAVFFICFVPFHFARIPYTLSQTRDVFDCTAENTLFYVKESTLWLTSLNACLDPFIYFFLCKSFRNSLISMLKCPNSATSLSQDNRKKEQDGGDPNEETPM
T5 sequence (Q15077 whole entry Y262A): as the sequence (Q15077 whole entry F252A) above, with A252F, Y262A counted along it
T1 sequence (P47900 whole entry, species assumed): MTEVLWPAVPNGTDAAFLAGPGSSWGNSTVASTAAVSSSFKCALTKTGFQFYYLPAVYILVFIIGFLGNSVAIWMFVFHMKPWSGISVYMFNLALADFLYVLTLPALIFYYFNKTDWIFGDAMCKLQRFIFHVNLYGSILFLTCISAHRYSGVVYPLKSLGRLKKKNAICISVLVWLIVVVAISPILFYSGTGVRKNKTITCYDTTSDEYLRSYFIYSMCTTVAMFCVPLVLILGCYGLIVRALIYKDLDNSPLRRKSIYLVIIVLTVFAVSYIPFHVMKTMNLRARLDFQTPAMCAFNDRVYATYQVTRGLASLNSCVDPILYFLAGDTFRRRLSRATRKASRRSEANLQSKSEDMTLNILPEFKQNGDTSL

Prostaglandin E2 glyceryl ester [PGE2-G]
Ca2+ release [1]: not and neither P2Y1 nor P2Y12 showed activity
Ca2+ release [2]: not and neither P2Y1 nor P2Y12 showed activity
IP1 formation at mutant receptor [3]: loss of PGE2-G-induced IP1 formation
IP1 formation at mutant receptor [4]: loss of PGE2-G-induced IP1 formation
IP1 formation at mutant receptor [5]: fully activated
response of orphan GPCRs [6]: None of the tested receptors demonstrated a positive response
EC50 [7]: ~1 pM
activation of known prostanoid receptors [8]: does not efficiently activate
agonist-induced internalization of P2Y6 (cell surface expression) [9]: cell surface expression levels of P2Y6 were reduced; also recorded: induced a time-dependent internalization

O=c1ccn([C@@H]2O[C@H](COP(=O)(O)OP(=O)(O)O)[C@@H](O)[C@H]2O)c(=O)[nH]1 [UDP]
EC50 ([3]; Fig. 6e): 15.4 ± 0.9 nM
IP1 formation at mutant receptor [3]: efficacy remained unchanged
EC50 ([4]; Fig. 6e): 12.7 ± 2.1 nM
IP1 formation at mutant receptor [4]: efficacy remained unchanged
IP1 formation at mutant receptor [5]: significantly reduced activity
EC50 [10]: 2.7 ± 0.1 nM
EC50 [11]: 3.6 ± 0.3 nM
agonist-induced internalization of P2Y6 (cell surface expression) [9]: cell surface expression levels of P2Y6 were reduced; also recorded: induced a time-dependent internalization
